# Results taken from patent US11186589B2, “Cyanoindoline derivatives as NIK inhibitors” (Janssen Pharmaceutica NV, priority 2016, dated 2021).
# Test system: JJN-3 cells
# Test: Antiproliferative activity on JJN-3 (NIK translocated) multiple myeloma cells (CellTiter-Glo)
# Format: cell-based, human
# Conditions: Homo sapiens, JJN-3, 96 h, JJN-3 (NIK translocated) cells, 96 hr treatment, averaged values, read-out: JJN-3 Proliferation inhibition (IC50 (nM))
# How it was run: (§1)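 Cells in RPMI 1640 with 2 mM L-glutamine and 10% FCS, treated 96 hr at 37 °C with 9-point 1:3 dilution series, 0.3% DMSO final. Viability read by CellTiter-Glo luminescence, mean of 2 wells. Time-zero blank subtracted; growth expressed as % of untreated control.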
row,IC50 [nM],SMILES
1,240,CC(C)Oc1nc2c(cc1Nc1nccc(-c3cc(C#N)c4c(c3)[C@@](C)(CO)CN4)n1)CN(C)CC2 [Compound 50]
2,457,CN1CCn2nc(Nc3nccc(-c4cc(C#N)c5c(c4)[C@@](C)(CO)CN5)n3)cc2C1=O [Compound 13b]
3,2400,C[C@]1(CO)CNc2c(C#N)cc(-c3ccnc(Nc4cc5c(n(CCC6CC6)c4=O)CCOC5)n3)cc21 [Compound 58]
4,162,Cc1cc2c(cc1Nc1nccc(-c3cc(C#N)c4c(c3)[C@@](C)(CO)CN4)n1)CCN(C)CC2 [Compound 23]
5,138,CC1(CO)CNc2c(C#N)cc(-c3ccnc(Nc4cc(Cl)cc5c4OCC5)n3)cc21 (stereo not shown) [Compound 41]
6,1700,C[C@]1(CO)CNc2c(C#N)cc(-c3ccnc(Nc4cnn5c4C(=O)N(Cc4ccccc4)CC5)n3)cc21 [Compound 26b]

# Same assay, conditions: JJN-3 (NIK translocated) cells, 96 hr treatment, averaged values, read-out: JJN-3 Proliferation inhibition (IC50 (nM))
row,IC50 [nM],SMILES
1,263,"CC1CCCn2ncc(Nc3nccc(-c4cc(C#N)c5c(c4)[C@@](C)(CO)CN5)n3)c2O1 (single isomer, unassigned) [Compound 30b]"

# Target: NIK/MAP3K14 (Homo sapiens (Human), UniProt Q99558)
# Sequence (Q99558 whole entry): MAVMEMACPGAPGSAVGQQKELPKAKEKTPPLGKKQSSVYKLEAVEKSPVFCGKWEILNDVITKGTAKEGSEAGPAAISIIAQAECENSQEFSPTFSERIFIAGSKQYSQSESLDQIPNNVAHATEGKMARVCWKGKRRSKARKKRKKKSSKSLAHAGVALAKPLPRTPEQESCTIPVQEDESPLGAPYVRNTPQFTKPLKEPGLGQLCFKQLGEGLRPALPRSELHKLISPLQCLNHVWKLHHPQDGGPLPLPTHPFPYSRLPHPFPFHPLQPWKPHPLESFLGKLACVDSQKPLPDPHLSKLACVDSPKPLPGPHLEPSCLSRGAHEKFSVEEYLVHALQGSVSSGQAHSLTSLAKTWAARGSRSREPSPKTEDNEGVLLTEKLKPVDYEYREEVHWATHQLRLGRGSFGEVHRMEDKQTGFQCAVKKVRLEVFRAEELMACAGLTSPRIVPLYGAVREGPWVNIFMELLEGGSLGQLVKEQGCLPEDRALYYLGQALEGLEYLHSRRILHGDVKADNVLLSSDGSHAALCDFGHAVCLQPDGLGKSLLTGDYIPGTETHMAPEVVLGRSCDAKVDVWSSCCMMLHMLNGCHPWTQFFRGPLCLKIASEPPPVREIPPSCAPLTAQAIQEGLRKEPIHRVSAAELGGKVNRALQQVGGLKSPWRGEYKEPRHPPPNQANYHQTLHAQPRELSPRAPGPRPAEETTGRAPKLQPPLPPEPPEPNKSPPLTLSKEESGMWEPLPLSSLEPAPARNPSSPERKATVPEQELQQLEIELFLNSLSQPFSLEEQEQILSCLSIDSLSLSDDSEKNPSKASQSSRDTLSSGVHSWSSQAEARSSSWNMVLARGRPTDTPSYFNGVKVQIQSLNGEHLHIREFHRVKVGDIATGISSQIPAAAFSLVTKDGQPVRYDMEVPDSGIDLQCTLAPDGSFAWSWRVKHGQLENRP
# Test: Inhibition of auto-phosphorylation of recombinant human NF-kappaB-inducing kinase (NIK/MAP3K14) activity (AlphaScreen)
# Format: biochemical
# Conditions: averaged values over all measurements on all batches, 25 microM ATP
# How it was run: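 GST-tagged NIK (0.2 nM) auto-phosphorylation was run with 25 microM ATP in pH 7.5 Tris buffer with MgCl2 for 1 h at 25 °C. It was detected by AlphaScreen with anti-phospho-IKK Ser176/180 antibody. IC50 came from sigmoidal fits of blank-subtracted % inhibition versus log concentration.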
row,IC50 [nM],SMILES
1,3.4,CC(C)Oc1nc2c(cc1Nc1nccc(-c3cc(C#N)c4c(c3)[C@@](C)(CO)CN4)n1)CN(C)CC2 [Compound 50]
2,2,CN1CCn2nc(Nc3nccc(-c4cc(C#N)c5c(c4)[C@@](C)(CO)CN5)n3)cc2C1=O [Compound 13b]
3,35.5,C[C@]1(CO)CNc2c(C#N)cc(-c3ccnc(Nc4cc5c(n(CCC6CC6)c4=O)CCOC5)n3)cc21 [Compound 58]
4,4.8,Cc1cc2c(cc1Nc1nccc(-c3cc(C#N)c4c(c3)[C@@](C)(CO)CN4)n1)CCN(C)CC2 [Compound 23]
5,11.8,CC1(CO)CNc2c(C#N)cc(-c3ccnc(Nc4cc(Cl)cc5c4OCC5)n3)cc21 (stereo not shown) [Compound 41]
6,9.5,C[C@]1(CO)CNc2c(C#N)cc(-c3ccnc(Nc4cnn5c4C(=O)N(Cc4ccccc4)CC5)n3)cc21 [Compound 26b]
7,5.2,"CC1CCCn2ncc(Nc3nccc(-c4cc(C#N)c5c(c4)[C@@](C)(CO)CN5)n3)c2O1 (single isomer, unassigned) [Compound 30b]"

# Test system: KMS12-BM cells
# Test: Antiproliferative activity on KMS12-BM (NIK WT) multiple myeloma cells (CellTiter-Glo)
# Format: cell-based, human
# Conditions: 96 hr treatment, averaged values, read-out: KMS-12 Proliferation inhibition (IC50 (nM))
# How it was run: as §1
row,IC50 [nM],SMILES
1,> 10000,"CC1CCCn2ncc(Nc3nccc(-c4cc(C#N)c5c(c4)[C@@](C)(CO)CN5)n3)c2O1 (single isomer, unassigned) [Compound 30b]"

# Same assay, conditions: Homo sapiens, KMS-12-BM, 96 h, 96 hr treatment, averaged values, read-out: KMS-12 Proliferation inhibition (IC50 (nM))
row,IC50 [nM],SMILES
1,3980,CC(C)Oc1nc2c(cc1Nc1nccc(-c3cc(C#N)c4c(c3)[C@@](C)(CO)CN4)n1)CN(C)CC2 [Compound 50]
2,~1860,CN1CCn2nc(Nc3nccc(-c4cc(C#N)c5c(c4)[C@@](C)(CO)CN5)n3)cc2C1=O [Compound 13b]
3,> 10000,C[C@]1(CO)CNc2c(C#N)cc(-c3ccnc(Nc4cc5c(n(CCC6CC6)c4=O)CCOC5)n3)cc21 [Compound 58]
4,~550,Cc1cc2c(cc1Nc1nccc(-c3cc(C#N)c4c(c3)[C@@](C)(CO)CN4)n1)CCN(C)CC2 [Compound 23]
5,> 10000,CC1(CO)CNc2c(C#N)cc(-c3ccnc(Nc4cc(Cl)cc5c4OCC5)n3)cc21 (stereo not shown) [Compound 41]
6,~9550,C[C@]1(CO)CNc2c(C#N)cc(-c3ccnc(Nc4cnn5c4C(=O)N(Cc4ccccc4)CC5)n3)cc21 [Compound 26b]

# Test system: P-IKKα levels in L363 cells
# Test: Effect of compounds on P-IKKα levels in L363 (NIK translocated multiple myeloma) cells
# Format: cell-based, human
# Conditions: 2 hr treatment, averaged values, read-out: Inhibition of pIKKα_L-363 (IC50 (nM))
# Description: Effect of Compounds on P-IKKα Levels in L363 (NIK Translocated Multiple Myeloma) Cells
# All compounds tested were dissolved in DMSO and further dilutions were made in culture medium. Final DMSO concentration was 1% (v/v) in cell assays. The human L363 cells (ATCC) were cultured in RPMI 1640 medium supplemented with GlutaMax and 10% fetal calf serum (PAA). Cells were routinely maintained at densities of 0.2×10^6 cells per ml—1×10^6 cells per ml at 37° C. in a humidified 5% CO2 atmosphere. Cells were passaged twice a week splitting back to obtain the low density. Cells were seeded in 96 well plates (Nunc 167008) at 2×10^6 per ml media in a volume of 75 μl per well plus 25 μl 1 μg/ml recombinant human B-cell activating factor (BAFF/BLyS/TNFSF13B). Seeded cells were incubated at 37° C. in a humidified 5% CO2 atmosphere for 24 hr. Drugs and/or solvents were added (20 μl) to a final volume of 120 μl. Following 2 hr treatment plates were removed from the incubator and cell lysis was achieved by the addition of 30 μl 5× lysis buffer followed by shaking on a plate shaker at 4° C. for 10 min. At the end of this incubation lysed cells were centrifuged at 800×g for 20 min at 4° C. and the lysate was assessed for P-IKKα levels by sandwich immuno-assay carried out in anti-rabbit antibody coated Mesoscale plates. Within an experiment, the results for each treatment were the mean of 2 replicate wells. For initial screening purposes, compounds were tested using an 8 point dilution curve (serial 1:3 dilutions). For each experiment, controls (containing MG132 and BAFF but no test drug) and a blank incubation (containing MG132 and BAFF and 10 μM ADS125117, a test concentration known to give full inhibition) were run in parallel. The blank incubation value was subtracted from all control and sample values. To determine the IC50 a sigmoidal curve was fitted to the plot of % inhibition of control P-IKKα levels versus Log10 compound concentration.
row,IC50 [nM],SMILES
1,13,"CC1CCCn2ncc(Nc3nccc(-c4cc(C#N)c5c(c4)[C@@](C)(CO)CN5)n3)c2O1 (single isomer, unassigned) [Compound 30b]"

# Same assay, conditions: Homo sapiens, L-363, 2 h, 2 hr treatment, averaged values, read-out: Inhibition of pIKKα_L-363 (IC50 (nM))
row,IC50 [nM],SMILES
1,56,CC(C)Oc1nc2c(cc1Nc1nccc(-c3cc(C#N)c4c(c3)[C@@](C)(CO)CN4)n1)CN(C)CC2 [Compound 50]
2,29,CN1CCn2nc(Nc3nccc(-c4cc(C#N)c5c(c4)[C@@](C)(CO)CN5)n3)cc2C1=O [Compound 13b]
3,204,C[C@]1(CO)CNc2c(C#N)cc(-c3ccnc(Nc4cc5c(n(CCC6CC6)c4=O)CCOC5)n3)cc21 [Compound 58]
4,~79,Cc1cc2c(cc1Nc1nccc(-c3cc(C#N)c4c(c3)[C@@](C)(CO)CN4)n1)CCN(C)CC2 [Compound 23]
5,3,CC1(CO)CNc2c(C#N)cc(-c3ccnc(Nc4cc(Cl)cc5c4OCC5)n3)cc21 (stereo not shown) [Compound 41]
6,25,C[C@]1(CO)CNc2c(C#N)cc(-c3ccnc(Nc4cnn5c4C(=O)N(Cc4ccccc4)CC5)n3)cc21 [Compound 26b]
